What was measured:
Assay type in all cases: in vivo
Kochia (Kochia scoparia) [1] = test: Test A preemergence; conditions: Bassia scoparia, pre-emergence, 240 h
How it was run: (§1)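 In a loam soil and sand blend, planted seeds got a preemergence directed soil spray, and young plants at the one- to two-leaf stage, 2–10 cm high, got a postemergence application; ~10 d greenhouse hold; injury rated visually, 0 = none, 100 = complete control.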

[2] = test system: barnyardgrass (Echinochloa crus-galli); test: Test A preemergence; conditions: Echinochloa crus-galli, pre-emergence, 240 h
How it was run: as §1

[3] = test system: giant foxtail (Setaria faberii); test: Test A preemergence; conditions: Setaria faberi, pre-emergence, 240 h
How it was run: as §1

[4] = test system: pigweed (Amaranthus retroflexus); test: Test A preemergence; conditions: Amaranthus retroflexus, pre-emergence, 240 h
[5] = test system: ragweed (common ragweed, Ambrosia elatior); test: Test A preemergence; conditions: Ambrosia artemisiifolia, pre-emergence, 240 h
How it was run: as §1

[6] = test system: ryegrass, Italian (Italian ryegrass, Lolium multiflorum); test: Test A preemergence; conditions: Lolium multiflorum, pre-emergence, 240 h
How it was run: as §1

[7] = test system: Galium (catchweed bedstraw, Galium aparine); test: Test A postemergence; conditions: Galium, post-emergence, 240 h, 125 g ai/ha, Postemergence; visual injury after approximately 10 d; 0 to 100 scale where 0 is no effect and 100 is complete control; read-out: Plant response rating, Galium
How it was run: as §1

Kochia (Kochia scoparia) [8] = test: Test A postemergence; conditions: Bassia scoparia, post-emergence, 240 h, 125 g ai/ha, Postemergence; visual injury after approximately 10 d; 0 to 100 scale where 0 is no effect and 100 is complete control; read-out: Plant response rating, Kochia
How it was run: as §1

[9] = test system: barnyardgrass (Echinochloa crus-galli); test: Test A postemergence; conditions: Echinochloa crus-galli, post-emergence, 240 h, 125 g ai/ha, Postemergence; visual injury after approximately 10 d; 0 to 100 scale where 0 is no effect and 100 is complete control; read-out: Plant response rating, Barnyardgrass
How it was run: as §1

[10] = test system: blackgrass (Alopecurus myosuroides); test: Test A postemergence; conditions: Alopecurus myosuroides, post-emergence, 240 h, 125 g ai/ha, Postemergence; visual injury after approximately 10 d; 0 to 100 scale where 0 is no effect and 100 is complete control; read-out: Plant response rating, Blackgrass
How it was run: as §1

corn (Zea mays) = test: Test A postemergence; conditions: Zea mays, post-emergence, 240 h, 125 g ai/ha, Postemergence; visual injury after approximately 10 d; 0 to 100 scale where 0 is no effect and 100 is complete control
How it was run: as §1

[11] = test system: giant foxtail (Setaria faberii); test: Test A postemergence; conditions: Setaria faberi, post-emergence, 240 h, 125 g ai/ha, Postemergence; visual injury after approximately 10 d; 0 to 100 scale where 0 is no effect and 100 is complete control; read-out: Plant response rating, Foxtail, Giant
How it was run: as §1

[12] = test system: pigweed (Amaranthus retroflexus); test: Test A postemergence; conditions: Amaranthus retroflexus, post-emergence, 240 h, 125 g ai/ha, Postemergence; visual injury after approximately 10 d; 0 to 100 scale where 0 is no effect and 100 is complete control; read-out: Plant response rating, Pigweed
How it was run: as §1

[13] = test system: ragweed (common ragweed, Ambrosia elatior); test: Test A postemergence; conditions: Ambrosia artemisiifolia, post-emergence, 240 h, 125 g ai/ha, Postemergence; visual injury after approximately 10 d; 0 to 100 scale where 0 is no effect and 100 is complete control; read-out: Plant response rating, Ragweed
How it was run: as §1

[14] = test system: ryegrass, Italian (Italian ryegrass, Lolium multiflorum); test: Test A postemergence; conditions: Lolium multiflorum, post-emergence, 240 h, 125 g ai/ha, Postemergence; visual injury after approximately 10 d; 0 to 100 scale where 0 is no effect and 100 is complete control; read-out: Plant response rating, Ryegrass, Italian
How it was run: as §1

[15] = test system: wheat (Triticum aestivum); test: Test A postemergence; conditions: Triticum aestivum, post-emergence, 240 h, 125 g ai/ha, Postemergence; visual injury after approximately 10 d; 0 to 100 scale where 0 is no effect and 100 is complete control; read-out: Plant response rating, Wheat
How it was run: as §1

[16] = test system: barnyardgrass (Echinochloa crus-galli); test: Test B flooded paddy test; conditions: Echinochloa crus-galli, Flood, 250 g ai/ha; scale of 0 to 100 where 0 is no effect and 100 is complete control; read-out: Barnyardgrass plant response rating
How it was run: (§2)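 Flooding to 3 cm over soil accompanied treatment, which consisted of adding compound to the standing water around 2-leaf plants; depth was then maintained. Visual assessment versus controls followed at 13 to 15 d (scale 0–100, 0 meaning no effect).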

[17] = test system: ducksalad (Heteranthera limosa); test: Test B flooded paddy test; conditions: Heteranthera limosa, Flood, 250 g ai/ha; scale of 0 to 100 where 0 is no effect and 100 is complete control; read-out: Ducksalad plant response rating
How it was run: as §2

rice (Oryra sativa) = test: Test B flooded paddy test; conditions: Oryza sativa, Flood, 250 g ai/ha; scale of 0 to 100 where 0 is no effect and 100 is complete control; read-out: Rice plant response rating
How it was run: as §2

[18] = test system: sedge, umbrella (small-flower umbrella sedge, Cyperus difformis); test: Test B flooded paddy test; conditions: Cyperus difformis, Flood, 250 g ai/ha; scale of 0 to 100 where 0 is no effect and 100 is complete control; read-out: Sedge, Umbrella plant response rating
How it was run: as §2

Compound `CCOc1cccc([C@H]2CNC(=O)[C@@H]2C(=O)Nc2ccccc2F)c1` [Compound 949] has a pest or weed control at 125 g/ha (Kochia (Kochia scoparia) [1]; 125 g ai/ha, Preemergence, visual injury rating after approximately 10 d, read-out: Kochia plant response rating (0 to 100 scale, 0 is no effect, 100 is complete control)) of 20%, a pest or weed control at 500 g/ha (Kochia (Kochia scoparia) [1]; 500 g ai/ha, preemergence, visual injury rating about 10 d after treatment, 0 to 100 scale (0 no effect, 100 complete control), read-out: Kochia plant response rating) of 50% and a pest or weed control at 125 g/ha ([2]; 125 g ai/ha, Preemergence, visual injury rating after approximately 10 d, read-out: Barnyardgrass plant response rating (0 to 100 scale, 0 is no effect, 100 is complete control)) of 70%. It also gave a pest or weed control at 500 g/ha ([2]; 500 g ai/ha, preemergence, visual injury rating about 10 d after treatment, 0 to 100 scale (0 no effect, 100 complete control), read-out: Barnyardgrass plant response rating) of 100%, a pest or weed control at 125 g/ha ([3]; 125 g ai/ha, Preemergence, visual injury rating after approximately 10 d, read-out: Foxtail, Giant plant response rating (0 to 100 scale, 0 is no effect, 100 is complete control)) of 60% and a pest or weed control at 500 g/ha ([3]; 500 g ai/ha, preemergence, visual injury rating about 10 d after treatment, 0 to 100 scale (0 no effect, 100 complete control), read-out: Foxtail, Giant plant response rating) of 70%. For the same compound, the pest or weed control at 125 g/ha ([4]; 125 g ai/ha, Preemergence, visual injury rating after approximately 10 d, read-out: Pigweed plant response rating (0 to 100 scale, 0 is no effect, 100 is complete control)) was 0%, the pest or weed control at 500 g/ha ([4]; 500 g ai/ha, preemergence, visual injury rating about 10 d after treatment, 0 to 100 scale (0 no effect, 100 complete control), read-out: Pigweed plant response rating) was 0% and the pest or weed control at 125 g/ha ([5]; 125 g ai/ha, Preemergence, visual injury rating after approximately 10 d, read-out: Ragweed plant response rating (0 to 100 scale, 0 is no effect, 100 is complete control)) was 0%. The pest or weed control at 500 g/ha ([5]; 500 g ai/ha, preemergence, visual injury rating about 10 d after treatment, 0 to 100 scale (0 no effect, 100 complete control), read-out: Ragweed plant response rating) was 0%, the pest or weed control at 125 g/ha ([6]; 125 g ai/ha, Preemergence, visual injury rating after approximately 10 d, read-out: Ryegrass, Italian plant response rating (0 to 100 scale, 0 is no effect, 100 is complete control)) was 0% and the pest or weed control at 500 g/ha ([6]; 500 g ai/ha, preemergence, visual injury rating about 10 d after treatment, 0 to 100 scale (0 no effect, 100 complete control), read-out: Ryegrass, Italian plant response rating) was 0%. It also gave a pest or weed control at 125 g/ha [7] of 0%, a pest or weed control at 125 g/ha (Kochia (Kochia scoparia) [8]) of 0% and a pest or weed control at 125 g/ha [9] of 90%. It also gave a pest or weed control at 125 g/ha [10] of 0%, a Corn plant response rating (crop injury, 0 = no effect, 100 = complete kill) at 125 g/ha (corn (Zea mays)) of 0% and a pest or weed control at 125 g/ha [11] of 20%. The pest or weed control at 125 g/ha [12] was 0%, the pest or weed control at 125 g/ha [13] was 0% and the pest or weed control at 125 g/ha [14] was 0%. It also gave a plant injury at 125 g/ha [15] of 0%, a pest or weed control at 250 g/ha [16] of 30% and a pest or weed control at 250 g/ha [17] of 100%. It also gave a pest or weed control at 250 g/ha (rice (Oryra sativa)) of 15% and a pest or weed control at 250 g/ha [18] of 0%.

— patent US12077503B2, “Substituted cyclic amides and their use as herbicides” (FMC CORPORATION, priority 2015, dated 2024)
